# Laboratory results as given in ChEMBL document CHEMBL1201862, “PubChem BioAssay data set” (2004).
# Calls of active or inactive are those of the source.
# Experiments:
# [1] = biological target: T1, Tyrosine-protein phosphatase non-receptor type 11 (Homo sapiens, UniProt Q06124); assay: PTPN11 enzyme inhibitors – biochemical, selectivity assay for STEP inhibitor project, dose response (AID 602367); assay type: functional; conditions: read-out: IC50_Mean
# T1 sequence (Q06124 whole entry): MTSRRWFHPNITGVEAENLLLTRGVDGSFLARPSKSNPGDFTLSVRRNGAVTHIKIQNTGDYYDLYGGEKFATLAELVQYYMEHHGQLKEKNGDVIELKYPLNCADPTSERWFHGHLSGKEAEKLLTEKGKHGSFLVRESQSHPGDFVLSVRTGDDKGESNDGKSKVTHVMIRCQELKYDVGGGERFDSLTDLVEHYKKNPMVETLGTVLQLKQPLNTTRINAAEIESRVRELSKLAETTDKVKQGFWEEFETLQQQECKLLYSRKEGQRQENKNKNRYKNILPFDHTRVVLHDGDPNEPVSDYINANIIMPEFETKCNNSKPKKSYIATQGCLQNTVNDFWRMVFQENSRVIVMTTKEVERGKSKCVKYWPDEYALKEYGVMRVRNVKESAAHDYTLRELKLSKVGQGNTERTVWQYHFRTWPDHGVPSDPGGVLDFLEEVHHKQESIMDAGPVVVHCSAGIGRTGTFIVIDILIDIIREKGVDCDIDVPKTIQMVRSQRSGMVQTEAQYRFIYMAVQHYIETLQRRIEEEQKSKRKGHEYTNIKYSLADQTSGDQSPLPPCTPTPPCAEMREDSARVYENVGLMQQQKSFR
# [2] = biological target: DNA dC->dU-editing enzyme APOBEC-3G (Homo sapiens, UniProt Q9HC16); assay: Dose Response confirmation of small molecule APOBEC3G DNA Deaminase Inhibitors via a fluorescence-based single-stranded DNA deaminase assay. [Related pubchem assays (depositor defined):AID493012, AID493028]; assay type: functional
# Sequence of DNA dC->dU-editing enzyme APOBEC-3G (Q9HC16 whole entry): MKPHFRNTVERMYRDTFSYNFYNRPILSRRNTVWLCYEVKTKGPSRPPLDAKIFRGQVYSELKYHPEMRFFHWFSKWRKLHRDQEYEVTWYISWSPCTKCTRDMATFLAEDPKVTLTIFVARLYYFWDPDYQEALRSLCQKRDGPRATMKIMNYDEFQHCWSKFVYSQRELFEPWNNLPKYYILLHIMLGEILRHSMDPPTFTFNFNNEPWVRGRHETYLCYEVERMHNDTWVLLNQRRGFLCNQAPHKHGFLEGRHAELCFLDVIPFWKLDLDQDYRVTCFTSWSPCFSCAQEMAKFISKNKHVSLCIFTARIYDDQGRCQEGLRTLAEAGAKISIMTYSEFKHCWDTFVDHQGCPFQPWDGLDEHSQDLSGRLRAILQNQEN
# [3] = biological target: Dual specificity protein phosphatase 3 (Homo sapiens, UniProt P51452); assay: VHR phosphatase inhibition, dose response, selectivity assay for STEP inhibitor project, biochemical (AID 602374); assay type: functional; conditions: read-out: IC50_Mean
# Sequence of Dual specificity protein phosphatase 3 (P51452 whole entry): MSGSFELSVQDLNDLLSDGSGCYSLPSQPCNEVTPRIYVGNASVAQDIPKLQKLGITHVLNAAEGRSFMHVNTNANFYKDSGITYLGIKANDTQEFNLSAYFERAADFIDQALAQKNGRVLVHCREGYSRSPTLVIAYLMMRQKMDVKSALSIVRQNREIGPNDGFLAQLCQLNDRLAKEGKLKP
# [4] = biological target: DNA dC->dU-editing enzyme APOBEC-3A (Homo sapiens, UniProt P31941); assay: A3A deaminase inhibition for selectivity – biochemical, dose response (AID 504722); assay type: functional
# [5] = biological target: T2, Tyrosine-protein phosphatase non-receptor type 5 (Homo sapiens, UniProt P54829); assay: PTPN5 enzyme inhibition – biochemical, fluorescence intensity, uHTS hits, confirmation (AID 602372); assay type: functional; conditions: read-out: IC50_Mean
# T2 sequence (P54829 whole entry): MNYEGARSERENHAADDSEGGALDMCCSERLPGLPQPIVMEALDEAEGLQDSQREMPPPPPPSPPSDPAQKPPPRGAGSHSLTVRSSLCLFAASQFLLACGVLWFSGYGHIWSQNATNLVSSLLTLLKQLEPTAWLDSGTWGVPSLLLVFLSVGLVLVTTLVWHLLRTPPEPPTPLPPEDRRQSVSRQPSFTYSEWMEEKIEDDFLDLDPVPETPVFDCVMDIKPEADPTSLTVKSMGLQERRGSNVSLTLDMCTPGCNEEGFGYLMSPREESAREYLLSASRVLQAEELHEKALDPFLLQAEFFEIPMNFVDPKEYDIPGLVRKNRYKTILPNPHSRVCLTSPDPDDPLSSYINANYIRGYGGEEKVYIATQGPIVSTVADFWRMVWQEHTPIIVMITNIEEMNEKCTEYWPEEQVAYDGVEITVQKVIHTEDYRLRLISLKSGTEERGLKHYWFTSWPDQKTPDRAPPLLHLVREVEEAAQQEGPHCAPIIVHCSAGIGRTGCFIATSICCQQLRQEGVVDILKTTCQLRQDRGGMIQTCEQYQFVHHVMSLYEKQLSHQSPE
# [6] = biological target: T3, Tyrosine-protein phosphatase non-receptor type 22 (Homo sapiens, UniProt Q9Y2R2); assay: lymphoid phosphatase LYP inhibitors – biochemical, selectivity assay for STEP inhibitor project, dose response (AID 624241); assay type: functional
# T3 sequence (Q9Y2R2 whole entry): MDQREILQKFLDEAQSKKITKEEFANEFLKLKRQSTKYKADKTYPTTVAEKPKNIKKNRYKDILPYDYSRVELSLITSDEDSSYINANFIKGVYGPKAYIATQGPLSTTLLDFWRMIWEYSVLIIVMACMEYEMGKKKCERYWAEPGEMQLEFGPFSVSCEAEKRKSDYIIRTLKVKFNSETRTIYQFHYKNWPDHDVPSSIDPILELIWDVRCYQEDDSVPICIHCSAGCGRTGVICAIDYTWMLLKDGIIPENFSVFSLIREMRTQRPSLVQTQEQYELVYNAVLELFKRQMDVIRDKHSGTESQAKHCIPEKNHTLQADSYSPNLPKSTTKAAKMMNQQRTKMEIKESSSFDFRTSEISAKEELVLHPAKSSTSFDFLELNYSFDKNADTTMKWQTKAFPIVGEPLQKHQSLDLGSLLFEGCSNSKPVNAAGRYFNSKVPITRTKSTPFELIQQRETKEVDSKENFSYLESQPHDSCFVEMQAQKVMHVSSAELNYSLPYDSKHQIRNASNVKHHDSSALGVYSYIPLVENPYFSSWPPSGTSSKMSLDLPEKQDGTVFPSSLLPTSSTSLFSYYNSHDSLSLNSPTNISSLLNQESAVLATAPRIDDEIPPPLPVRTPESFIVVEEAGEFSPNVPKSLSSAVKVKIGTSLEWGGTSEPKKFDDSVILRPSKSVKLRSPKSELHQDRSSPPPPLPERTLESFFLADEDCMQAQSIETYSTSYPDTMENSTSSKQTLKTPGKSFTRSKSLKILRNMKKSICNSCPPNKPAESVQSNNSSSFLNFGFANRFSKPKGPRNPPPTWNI
# [7] = biological target: Long-chain-fatty-acid--AMP ligase FadD28 (Mycobacterium tuberculosis, UniProt P9WQ59); assay: Fluorescence polarization aasay to screen for inhibitors that compete for the binding of FadD28 to a bisubstrate Measured in Biochemical System Using Plate Reader - 2147-01_Inhibitor_Dose_CherryPick_Activity.; assay type: functional, Mycobacterium tuberculosis H37Rv
# Sequence of Long-chain-fatty-acid--AMP ligase FadD28 (P9WQ59 whole entry): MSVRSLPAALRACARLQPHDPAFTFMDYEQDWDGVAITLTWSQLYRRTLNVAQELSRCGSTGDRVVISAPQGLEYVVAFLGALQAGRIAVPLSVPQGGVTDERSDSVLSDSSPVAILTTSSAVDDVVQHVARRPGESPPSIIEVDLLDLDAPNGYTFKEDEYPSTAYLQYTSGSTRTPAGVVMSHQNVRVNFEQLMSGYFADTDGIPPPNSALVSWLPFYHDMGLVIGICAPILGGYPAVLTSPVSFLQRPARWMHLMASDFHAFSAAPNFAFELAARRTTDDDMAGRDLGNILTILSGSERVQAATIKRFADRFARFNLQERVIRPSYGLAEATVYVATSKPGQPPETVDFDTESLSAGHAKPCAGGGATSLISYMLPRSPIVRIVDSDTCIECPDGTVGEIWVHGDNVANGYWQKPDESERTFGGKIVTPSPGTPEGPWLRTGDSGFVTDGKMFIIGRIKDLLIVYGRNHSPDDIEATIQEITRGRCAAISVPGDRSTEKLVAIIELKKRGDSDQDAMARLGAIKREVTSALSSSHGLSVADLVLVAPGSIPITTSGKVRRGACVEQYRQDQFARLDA
# [8] = biological target: Mu-type opioid receptor (Homo sapiens, UniProt P35372); assay type: functional, cell-based;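 further: U2OS cells with beta-arrestin recruitment to OPRM1 by beta-gal complementation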
# [9] = biological target: 5-hydroxytryptamine receptor 2A (Mus musculus, UniProt P35363); assay type: functional, cell-based;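 further: CHO-K1 cells with tagged receptor and beta-arrestin; agonist potency measured as compound-induced activation of the receptor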
# [10] = test system: Vero; assay: viability loss in Vero cells – cell-based, plate reader, cherry-pick samples, cytotoxicity control, dose response (AID 687020); assay type: functional; conditions: Chlorocebus sabaeus
# [11] = biological target: Beta-lactamase (Pseudomonas aeruginosa, UniProt Q79MP6);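 further: biochemical dose-response test of metallo-beta-lactamase enzyme inhibition, read out by epi-absorbance; purified recombinant IMP-1 metallo-beta-lactamase with nitrocefin as substrate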
# [12] = biological target: T4, Voltage-gated N-type calcium channel alpha-1B subunit/Amyloid beta A4 precursor protein-binding family A member 1 (Homo sapiens, UniProt Q00975+Q02410); assay type: protein assay
# T4 sequence (Q00975 whole entry): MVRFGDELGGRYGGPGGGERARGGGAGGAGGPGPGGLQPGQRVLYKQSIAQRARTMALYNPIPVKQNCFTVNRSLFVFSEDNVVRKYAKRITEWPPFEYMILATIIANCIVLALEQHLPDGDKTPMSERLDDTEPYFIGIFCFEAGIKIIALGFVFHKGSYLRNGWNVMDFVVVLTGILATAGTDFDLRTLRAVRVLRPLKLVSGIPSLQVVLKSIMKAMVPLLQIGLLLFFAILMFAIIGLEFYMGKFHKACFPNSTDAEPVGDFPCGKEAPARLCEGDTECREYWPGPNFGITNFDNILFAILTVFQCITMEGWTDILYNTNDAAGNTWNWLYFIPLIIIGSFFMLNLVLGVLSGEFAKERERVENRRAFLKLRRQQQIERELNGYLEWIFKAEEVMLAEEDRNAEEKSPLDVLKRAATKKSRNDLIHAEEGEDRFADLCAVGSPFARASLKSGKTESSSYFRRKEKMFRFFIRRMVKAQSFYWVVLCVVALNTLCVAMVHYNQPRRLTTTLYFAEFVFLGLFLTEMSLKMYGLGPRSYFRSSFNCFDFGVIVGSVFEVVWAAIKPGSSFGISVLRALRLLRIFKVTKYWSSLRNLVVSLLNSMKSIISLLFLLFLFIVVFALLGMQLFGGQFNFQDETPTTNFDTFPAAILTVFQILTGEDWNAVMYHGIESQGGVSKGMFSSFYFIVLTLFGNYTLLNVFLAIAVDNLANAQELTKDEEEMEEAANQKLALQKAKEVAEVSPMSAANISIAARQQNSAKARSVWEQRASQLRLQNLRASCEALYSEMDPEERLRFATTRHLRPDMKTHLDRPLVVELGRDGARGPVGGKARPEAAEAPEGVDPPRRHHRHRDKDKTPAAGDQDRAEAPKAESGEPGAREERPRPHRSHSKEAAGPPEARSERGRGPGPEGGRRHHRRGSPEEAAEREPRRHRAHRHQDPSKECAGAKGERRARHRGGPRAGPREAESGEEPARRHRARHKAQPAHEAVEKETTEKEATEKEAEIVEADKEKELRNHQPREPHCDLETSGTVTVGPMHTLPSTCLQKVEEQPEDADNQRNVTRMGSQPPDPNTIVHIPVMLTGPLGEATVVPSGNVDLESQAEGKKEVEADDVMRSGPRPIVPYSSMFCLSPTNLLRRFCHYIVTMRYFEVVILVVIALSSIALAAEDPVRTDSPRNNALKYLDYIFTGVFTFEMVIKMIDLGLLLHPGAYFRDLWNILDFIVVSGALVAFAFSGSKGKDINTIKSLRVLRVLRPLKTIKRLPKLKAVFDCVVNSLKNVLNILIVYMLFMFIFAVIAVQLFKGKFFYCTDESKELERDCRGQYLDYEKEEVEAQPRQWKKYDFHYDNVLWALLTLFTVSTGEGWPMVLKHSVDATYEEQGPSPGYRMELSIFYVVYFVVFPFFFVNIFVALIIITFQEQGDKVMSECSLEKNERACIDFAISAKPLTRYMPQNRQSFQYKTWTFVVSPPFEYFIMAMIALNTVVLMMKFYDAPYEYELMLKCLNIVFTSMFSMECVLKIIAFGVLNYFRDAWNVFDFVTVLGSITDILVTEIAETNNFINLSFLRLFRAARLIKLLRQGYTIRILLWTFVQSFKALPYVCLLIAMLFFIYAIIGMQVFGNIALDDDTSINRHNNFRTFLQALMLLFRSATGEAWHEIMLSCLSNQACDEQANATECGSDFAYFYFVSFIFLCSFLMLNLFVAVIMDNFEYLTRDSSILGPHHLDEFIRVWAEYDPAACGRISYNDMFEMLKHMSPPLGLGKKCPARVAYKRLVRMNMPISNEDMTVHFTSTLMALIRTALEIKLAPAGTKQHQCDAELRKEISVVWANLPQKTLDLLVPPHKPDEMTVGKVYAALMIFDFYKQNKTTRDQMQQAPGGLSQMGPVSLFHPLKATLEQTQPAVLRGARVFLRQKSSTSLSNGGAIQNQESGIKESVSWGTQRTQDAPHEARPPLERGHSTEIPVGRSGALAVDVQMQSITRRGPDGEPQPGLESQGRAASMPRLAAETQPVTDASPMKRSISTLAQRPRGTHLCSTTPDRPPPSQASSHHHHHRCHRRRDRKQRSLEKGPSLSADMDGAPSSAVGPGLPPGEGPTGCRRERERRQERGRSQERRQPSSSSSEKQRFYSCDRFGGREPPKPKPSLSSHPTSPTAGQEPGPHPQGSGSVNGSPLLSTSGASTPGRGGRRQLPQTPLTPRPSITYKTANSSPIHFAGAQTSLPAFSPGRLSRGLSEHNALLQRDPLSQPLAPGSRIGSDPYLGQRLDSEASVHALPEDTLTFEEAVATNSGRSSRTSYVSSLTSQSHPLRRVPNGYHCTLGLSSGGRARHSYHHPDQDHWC
# T4 sequence (Q02410 whole entry): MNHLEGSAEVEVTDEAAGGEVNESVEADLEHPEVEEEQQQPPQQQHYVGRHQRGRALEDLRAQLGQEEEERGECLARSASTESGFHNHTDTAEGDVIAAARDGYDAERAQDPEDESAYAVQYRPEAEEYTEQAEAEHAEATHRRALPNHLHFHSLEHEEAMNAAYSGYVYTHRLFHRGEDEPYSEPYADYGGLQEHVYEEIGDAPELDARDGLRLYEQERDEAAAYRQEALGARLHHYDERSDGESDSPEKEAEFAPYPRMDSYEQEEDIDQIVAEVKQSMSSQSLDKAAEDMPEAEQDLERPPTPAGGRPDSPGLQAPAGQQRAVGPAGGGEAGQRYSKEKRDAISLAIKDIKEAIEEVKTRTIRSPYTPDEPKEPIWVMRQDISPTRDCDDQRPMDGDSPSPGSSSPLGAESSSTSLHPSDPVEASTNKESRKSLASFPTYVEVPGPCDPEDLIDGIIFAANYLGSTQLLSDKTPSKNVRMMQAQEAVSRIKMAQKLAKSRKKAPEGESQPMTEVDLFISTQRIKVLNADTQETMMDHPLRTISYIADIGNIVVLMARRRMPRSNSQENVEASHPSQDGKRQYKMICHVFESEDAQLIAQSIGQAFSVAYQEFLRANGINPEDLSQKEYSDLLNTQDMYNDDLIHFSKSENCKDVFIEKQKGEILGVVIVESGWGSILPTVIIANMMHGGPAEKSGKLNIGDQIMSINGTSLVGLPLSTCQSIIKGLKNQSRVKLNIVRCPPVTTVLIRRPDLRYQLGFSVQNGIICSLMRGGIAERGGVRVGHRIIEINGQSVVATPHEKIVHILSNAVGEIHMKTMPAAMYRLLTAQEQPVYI
# [13] = biological target: T4, Voltage-gated N-type calcium channel alpha-1B subunit/Amyloid beta A4 precursor protein-binding family A member 1; assay type: protein assay; remark: listed apart in the source
# [14] = biological target: Beta-lactamase (Salmonella choleraesuis (strain SC-B67), UniProt Q5J463)
# Sequence of Beta-lactamase (Salmonella choleraesuis (strain SC-B67), UniProt Q5J463) (Q5J463 whole entry): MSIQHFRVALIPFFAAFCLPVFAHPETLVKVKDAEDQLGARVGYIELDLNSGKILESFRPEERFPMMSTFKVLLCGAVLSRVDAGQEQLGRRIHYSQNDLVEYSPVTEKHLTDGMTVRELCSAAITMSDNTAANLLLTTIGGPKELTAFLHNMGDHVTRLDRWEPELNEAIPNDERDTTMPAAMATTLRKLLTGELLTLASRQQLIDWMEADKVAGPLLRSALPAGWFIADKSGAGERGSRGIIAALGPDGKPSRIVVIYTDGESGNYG
# [15] = test system: HEK293; assay: membrane integrity loss in HEK cells – cell-based, fluorescence, cytotoxicity control for IDE activator project, dose response (AID 588440); assay type: functional; conditions: Homo sapiens;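 further: cytotoxicity by LDH release measuring loss of membrane integrity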
# [16] = biological target: T5, Insulin-degrading enzyme (Homo sapiens, UniProt P14735); assay: recombinant IDE activation, cell-free – biochemical, fluorescence polarization, counter-screen for IDE activator project, dose response (AID 588681)
# T5 sequence (P14735 whole entry): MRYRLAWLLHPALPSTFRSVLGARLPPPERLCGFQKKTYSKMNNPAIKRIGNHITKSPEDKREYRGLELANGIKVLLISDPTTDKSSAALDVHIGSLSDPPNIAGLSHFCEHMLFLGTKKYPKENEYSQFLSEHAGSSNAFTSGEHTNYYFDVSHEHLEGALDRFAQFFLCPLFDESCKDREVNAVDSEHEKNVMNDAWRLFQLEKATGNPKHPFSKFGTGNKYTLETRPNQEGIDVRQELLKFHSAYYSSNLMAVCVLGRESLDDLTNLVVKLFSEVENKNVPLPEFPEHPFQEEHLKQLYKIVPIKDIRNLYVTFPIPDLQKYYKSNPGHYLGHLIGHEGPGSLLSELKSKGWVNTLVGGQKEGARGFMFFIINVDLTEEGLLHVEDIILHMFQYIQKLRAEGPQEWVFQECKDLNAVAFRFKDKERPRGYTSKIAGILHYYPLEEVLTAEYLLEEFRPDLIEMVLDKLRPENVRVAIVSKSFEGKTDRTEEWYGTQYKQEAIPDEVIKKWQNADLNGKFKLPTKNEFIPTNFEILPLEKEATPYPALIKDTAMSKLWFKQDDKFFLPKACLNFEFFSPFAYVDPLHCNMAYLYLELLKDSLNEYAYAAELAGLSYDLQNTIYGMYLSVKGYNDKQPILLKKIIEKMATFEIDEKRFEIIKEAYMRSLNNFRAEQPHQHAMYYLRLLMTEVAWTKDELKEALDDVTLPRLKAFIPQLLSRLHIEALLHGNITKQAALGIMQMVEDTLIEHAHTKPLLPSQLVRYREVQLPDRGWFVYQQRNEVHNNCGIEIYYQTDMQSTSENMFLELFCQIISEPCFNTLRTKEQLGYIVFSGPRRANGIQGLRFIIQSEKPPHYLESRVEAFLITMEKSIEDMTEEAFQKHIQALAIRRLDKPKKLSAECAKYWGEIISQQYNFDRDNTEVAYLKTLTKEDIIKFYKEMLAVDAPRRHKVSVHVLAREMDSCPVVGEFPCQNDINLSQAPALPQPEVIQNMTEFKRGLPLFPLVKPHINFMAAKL
# [17] = test system: HEK293; assay: optical interference in Abeta FP readout, dose response, artefact control for IDE activator project, biochemical, fluorescence polarization (AID 588442); assay type: functional, cell-based; conditions: Homo sapiens
# [18] = biological target: T5, Insulin-degrading enzyme; assay: cellular IDE activation of Abeta substrate cleavage – fluorescence polarization, HEK cells, dose response (AID 588439); assay type: functional, cell-based
# [19] = biological target: Keap1/Nrf2 (Homo sapiens, UniProt Q14145); assay: disruptors of Keap1 binding to Nrf2 peptide – biochemical, fluorescence polarization, cherry-picked samples, dose response (AID 588683)
# [20] = biological target: ORF 73 (Human herpesvirus 8, UniProt O40947); assay: KSHV LANA DNA-binding disruption – biochemical, fluorescence polarization, cherry-picked samples, dose response (AID 504725); parameters: species or system Human gammaherpesvirus 8;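 further: fluorescence polarization of a labeled DNA duplex reporting LANA DNA binding; potency is for inhibitors that block LANA binding to the DNA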
# [21] = viability loss in HEK293T cells – cell-based, cherry-picks, cytotoxicity control for HIV Vif inhibitor project, dose response (AID 652208); assay type: functional
# [22] = biological target: Photoreceptor-specific nuclear receptor (Homo sapiens, UniProt Q9Y5X4); assay type: functional, cell-based;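 further: CHO-S cells with Gal4-NCOR and VP16-NR2E3 two-hybrid luciferase reporter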
# Sequence of Photoreceptor-specific nuclear receptor (Q9Y5X4 whole entry, the tested form may be a part): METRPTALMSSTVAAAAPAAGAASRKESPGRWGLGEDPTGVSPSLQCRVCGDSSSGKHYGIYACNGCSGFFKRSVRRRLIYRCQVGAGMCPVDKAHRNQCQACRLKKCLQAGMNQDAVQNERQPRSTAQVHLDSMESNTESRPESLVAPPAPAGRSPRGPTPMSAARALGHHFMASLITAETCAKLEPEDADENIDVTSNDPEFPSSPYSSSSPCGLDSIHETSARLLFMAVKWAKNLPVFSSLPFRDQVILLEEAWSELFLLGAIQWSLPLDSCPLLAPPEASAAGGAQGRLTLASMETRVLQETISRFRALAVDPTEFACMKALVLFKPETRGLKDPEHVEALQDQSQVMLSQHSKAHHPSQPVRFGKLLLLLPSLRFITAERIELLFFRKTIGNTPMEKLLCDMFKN
# [23] = cells
# [24] = biological target: Nuclear receptor subfamily 0 group B member 1 (Homo sapiens, UniProt P51843); assay type: functional, cell-based;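 further: HEK293T cells transfected with SF-1 and DAX-1 plus StAR promoter luciferase reporter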
# [25] = biological target: T6, Oxysterols receptor LXR-beta (Homo sapiens, UniProt P55055); assay type: functional, cell-based;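 further: Cell-based luminescence dose-response assay of agonist activity at LXR, run as a confirmatory counterscreen to a daf-12 agonist screen; HEK293 cells with Gal4-LXR fusion and GAL4-driven luciferase reporter; agonist potency from rising luciferase signal of a Gal4-LXR reporter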
# T6 sequence (P55055 whole entry): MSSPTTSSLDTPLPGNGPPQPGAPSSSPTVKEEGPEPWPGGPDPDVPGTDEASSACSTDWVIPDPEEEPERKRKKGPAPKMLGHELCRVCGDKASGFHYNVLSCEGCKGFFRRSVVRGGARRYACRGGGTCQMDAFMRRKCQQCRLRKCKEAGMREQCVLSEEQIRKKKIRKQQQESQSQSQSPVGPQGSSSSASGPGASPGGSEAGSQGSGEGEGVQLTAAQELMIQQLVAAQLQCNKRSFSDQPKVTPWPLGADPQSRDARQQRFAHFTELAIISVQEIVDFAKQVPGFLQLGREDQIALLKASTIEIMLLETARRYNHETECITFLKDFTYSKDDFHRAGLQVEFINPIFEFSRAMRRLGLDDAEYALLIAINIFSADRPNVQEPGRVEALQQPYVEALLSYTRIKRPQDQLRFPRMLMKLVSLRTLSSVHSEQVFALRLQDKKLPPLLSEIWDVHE
# [26] = cells; assay type: functional, cell-based
# [27] = test system: Cryptococcus neoformans; assay: PubChem AID 686997; assay type: functional, organism-based
# [28] = Counterscreen for antagonists of the human trace amine associated receptor 1 (hTAAR1): Fluorescence-based cell-based high throughput dose response assay to identify nonselective Ga16 antagonists.; assay type: functional
# [29] = Counterscreen for […] of the human trace amine associated receptor 1 (TAAR1): Fluorescence-based cell-based high throughput dose response assay to identify nonselective Ga16 agonists.; assay type: functional
smiles,measurement,setting,value
CCN1CCN(C(=S)c2ccc(Cl)cc2)CC1,IC50,[1],0.318 µM (active)
same,IC50,[2],5.06 µM (active)
same,IC50,[3],0.341 µM (active)
same,IC50,[4],> 100 µM (inactive)
same,IC50,[5],8.91 µM (active)
same,IC50,[6],12.8 µM (active)
Cc1cccc(NC(=O)Cn2c(=O)oc3ccccc32)n1,AC50,[7],27.9 µM (active)
CN1C[C@H](CO)C[C@@H]2c3cccc4[nH]cc(c34)C[C@H]21,EC50,[8],92.5 µM (inactive)
same,EC50,[9],0.0819 µM (active)
O=C(COc1ccccc1)Nc1ccc(N2CCN(C(=O)c3cccs3)CC2)cc1,AC50,[10],35.4 µM (active)
O=C1c2cccc3c(O)ccc(c23)C(=O)N1Cc1ccco1,IC50,[11],14.1 µM (inactive)
same,IC50,[12],> 50 µM (inactive)
same,IC50,[13],9.17 µM (active)
same,IC50,[14],7.5 µM (active)
same,IC50,[15],> 89.3 µM (inactive)
same,EC50,[16],> 54.7 µM (inactive)
same,EC50,[17],> 54.7 µM (inactive)
same,EC50,[18],> 54.7 µM (inactive)
same,AC50,[19],1.5 µM (active)
same,AC50,[20],0.966 µM (active)
Cc1cc2cc(C#N)c(SCC(=O)Nc3nonc3C)nc2cc1C,AC50,[21],34.9 µM (active)
Cc1ccnc(NC(=O)Cc2ccc(-c3ccccc3)cc2)c1,IC50,[22],0.741 µM (active)
same,EC50,[23],> 67.5 µM (inactive)
same,IC50,[24],> 67.5 µM (inactive)
same,EC50,[25],> 67.5 µM (inactive)
same,IC50,[26],> 67.5 µM (inactive)
COCCN1C(=S)N[C@@H](c2ccccc2)C(C(=O)OC)=C1C,AC50,[27],> 84 µM (inactive)
Cc1nn(Cc2c(F)c(F)c(F)c(F)c2F)c(C)c1NC(=O)c1ccc(COc2ccccc2Cl)cc1,IC50,[28],> 29.9 µM (inactive)
same,EC50,[29],> 29.9 µM (inactive)
